This is an account of results in PMC12550136, “Functional and structural characterization of F1 ‐ATPase with common ancestral core domains in stator ring” (Protein Science : A Publication of the Protein Society, 2025).

This assay relates to T1, F1 ^anc_core.
T1 construct: gene atpD; alpha: TF1 residues 1-94 + alpha^anc NBD/CTD; beta: TF1 residues 1-78 + beta^anc NBD/CTD; N-terminal His-tags; alpha3beta3gamma; expressed in E. coli JM103 delta-unc; with ATP synthase gamma chain
The assay is described as follows: single-molecule rotation assay, […] nm gold colloid, Michaelis-Menten fit. The class given is biochemical, synthetic construct. The settings on record: 50 mM Hepes-KOH pH 7.5, 100 mM KCl.

The structures appear in SMILES notation.

By Km is commonly meant the concentration of substrate that gives half-maximal velocity. For the compound `Nc1ncnc2c1ncn2[C@@H]1O[C@H](COP(=O)(O)OP(=O)(O)OP(O)(O)=S)[C@@H](O)[C@H]1O` [ATPγS], the Km (5 mM MgCl2, room temperature) was 0.68 µM.

As for `Nc1ncnc2c1ncn2[C@@H]1O[C@H](COP(=O)(O)OP(=O)(O)OP(=O)(O)O)[C@@H](O)[C@H]1O` [ATP], the Km (5 mM MgCl2, ATP-regenerating system, room temperature) stood at 2.6 µM.
